Measured values: patent publication EP4685143A1 (Vivozon,Inc., priority 2023, dated 2024)

Molecular target: T1, human HDAC6 enzyme (Homo sapiens, UniProt Q9UBN7)
T1 sequence (Q9UBN7 1-1215): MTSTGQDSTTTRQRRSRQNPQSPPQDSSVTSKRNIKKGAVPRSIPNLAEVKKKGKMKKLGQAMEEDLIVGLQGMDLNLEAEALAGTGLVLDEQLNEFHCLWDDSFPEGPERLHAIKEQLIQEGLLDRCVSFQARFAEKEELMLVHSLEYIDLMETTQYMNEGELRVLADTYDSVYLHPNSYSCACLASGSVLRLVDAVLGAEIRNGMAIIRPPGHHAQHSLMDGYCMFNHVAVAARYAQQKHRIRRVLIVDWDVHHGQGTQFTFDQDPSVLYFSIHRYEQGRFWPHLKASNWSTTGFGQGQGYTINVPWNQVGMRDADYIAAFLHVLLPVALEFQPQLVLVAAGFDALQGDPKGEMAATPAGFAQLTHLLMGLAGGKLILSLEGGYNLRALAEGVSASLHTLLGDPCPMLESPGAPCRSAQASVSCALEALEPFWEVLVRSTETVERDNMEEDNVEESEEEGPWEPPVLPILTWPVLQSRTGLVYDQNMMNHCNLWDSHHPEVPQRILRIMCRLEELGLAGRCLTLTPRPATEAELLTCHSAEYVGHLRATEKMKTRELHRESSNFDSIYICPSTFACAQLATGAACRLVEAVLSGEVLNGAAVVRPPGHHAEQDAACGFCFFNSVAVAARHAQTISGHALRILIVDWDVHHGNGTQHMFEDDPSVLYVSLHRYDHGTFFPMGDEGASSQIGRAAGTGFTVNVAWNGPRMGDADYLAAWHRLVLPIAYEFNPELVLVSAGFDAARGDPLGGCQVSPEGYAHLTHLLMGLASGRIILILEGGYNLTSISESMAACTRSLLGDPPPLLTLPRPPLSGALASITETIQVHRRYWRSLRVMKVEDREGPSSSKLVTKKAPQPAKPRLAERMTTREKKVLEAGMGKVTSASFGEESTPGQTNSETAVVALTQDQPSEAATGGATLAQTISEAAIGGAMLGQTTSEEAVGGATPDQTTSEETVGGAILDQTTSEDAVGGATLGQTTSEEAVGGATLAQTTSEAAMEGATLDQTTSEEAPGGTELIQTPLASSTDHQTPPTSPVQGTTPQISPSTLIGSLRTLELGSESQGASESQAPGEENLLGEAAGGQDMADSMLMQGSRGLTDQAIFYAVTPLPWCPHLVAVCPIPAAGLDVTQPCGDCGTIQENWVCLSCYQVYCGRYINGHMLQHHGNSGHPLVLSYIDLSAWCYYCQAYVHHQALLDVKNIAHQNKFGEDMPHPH
Test: Fluorescence-based enzyme activity assay
Type: biochemical
Conditions: substrate with fluorescent peptide of p53 residues 379-382, 30°C for 1 hour
Description: Experimental Example 1: Fluorescence-based enzyme activity assay
In order to measure the inhibitory effect of the compounds on the activity of histone deacetylase 6 (HDAC6), an enzyme activity assay was performed to evaluate the enzyme activity by reacting the human HDAC6 enzyme with a substrate to which a fluorescent peptide of p53 residues 379-382 was attached. The test compounds were dissolved in 100% DMSO at a concentration of 10 mM to prepare a stock solution. A starting concentration of 30 µM was prepared from the stock solution, followed by 1/3 serial dilutions to prepare the test buffer solution. Trichostatin A (TSA)-which is the reference compound used to confirm the validity of the experiment-was serially diluted by 1/3 with the test buffer solution, starting from the highest concentration of 1 µM. To react the test compounds and TSA prepared in the test buffer with the HDAC6 enzyme, they were dispensed into a 96-well black plate and spin-down of the plate was performed. Then, the reaction was carried out at room temperature for 10 minutes. After 10 minutes, the substrate was dispensed, and the plate was sealed. The reaction was carried out at 30°C for 1 hour under light-blocking conditions. Fluorescence values were measured using a plate reader (wavelength: excitation/emission = 360/460 nm). The fluorescence measurements were normalized to the HDAC6 enzyme-treated group as 100% and the untreated group as 0%, respectively. […]

IC50 [nM] | Compound
< 100 | Cc1cncc(C#CCn2ccc(-c3nnc(C(F)F)o3)cc2=O)c1 [Example 29, 4-(5-(difluoromethyl)-1,3,4-oxadiazol-2-yl)-1-(3-(5-methylpyridin-3-yl)prop-2-yn-1-yl)pyridin-2(1H)-one]
100 to 500 | O=c1cc(-c2noc(C(F)(F)F)n2)ccn1CC#Cc1ccccn1 [Example 5, 1-(3-(pyridin-2-yl)prop-2-yn-1-yl)-4-(5-(trifluoromethyl)-1,2,4-oxadiazol-3-yl)pyridin-2(1H)-one]
500 to 1000 | O=c1cc(-c2noc(C(F)(F)F)n2)ccn1CC#Cc1ccccc1F [Example 6, 1-(3-(2-fluorophenyl)prop-2-yn-1-yl)-4-(5-(trifluoromethyl)-1,2,4-oxadiazol-3-yl)pyridin-2(1H)-one]
100 to 500 | O=c1cc(-c2nnc(C(F)F)o2)ccn1CC#Cc1ccc2scnc2c1 [Example 40, 1-(3-(benzo[d]thiazol-5-yl)prop-2-yn-1-yl)-4-(5-(difluoromethyl)-1,3,4-oxadiazol-2-yl)pyridin-2(1H)-one]
< 100 | O=c1cc(-c2nnc(C(F)F)o2)ccn1CC#Cc1ccc(F)c(Cl)c1 [Example 34, 1-(3-(3-chloro-4-fluorophenyl)prop-2-yn-1-yl)-4-(5-(difluoromethyl)-1,3,4-oxadiazol-2-yl)pyridin-2(1H)-one]
100 to 500 | O=c1cc(-c2noc(C(F)(F)F)n2)ccn1CC#Cc1ccncc1 [Example 3, 1-(3-(pyridin-4-yl)prop-2-yn-1-yl)-4-(5-(trifluoromethyl)-1,2,4-oxadiazol-3-yl)pyridin-2(1H)-one]
< 100 | O=c1cc(-c2nnc(C(F)F)o2)ccn1CC#Cc1cccc(F)c1 [Example 12, 4-(5-(difluoromethyl)-1,3,4-oxadiazol-2-yl)-1-(3-(3-fluorophenyl)prop-2-yn-1-yl)pyridin-2(1H)-one]
< 100 | Cc1ncc(C#CCn2ccc(-c3nnc(C(F)F)o3)cc2=O)[nH]1 [Example 42, 4-(5-(difluoromethyl)-1,3,4-oxadiazol-2-yl)-1-(3-(2-methyl-1H-imidazol-5-yl)prop-2-yn-1-yl)pyridin-2(1H)-one]
< 100 | O=c1cc(-c2nnc(C(F)F)o2)ccn1CC#Cc1ccccc1 [Example 1, 4-(5-(difluoromethyl)-1,3,4-oxadiazol-2-yl)-1-(3-phenylprop-2-yn-1-yl)pyridin-2(1H)-one]
< 100 | O=c1cc(-c2nnc(C(F)F)o2)ccn1CC#Cc1cccc(Cl)c1F [Example 33, 1-(3-(3-chloro-2-fluorophenyl)prop-2-yn-1-yl)-4-(5-(difluoromethyl)-1,3,4-oxadiazol-2-yl)pyridin-2(1H)-one]
500 to 1000 | O=c1cc(-c2noc(C(F)(F)F)n2)ccn1CC#Cc1ccccc1 [Example 2, 1-(3-phenylprop-2-yn-1-yl)-4-(5-(trifluoromethyl)-1,2,4-oxadiazol-3-yl)pyridin-2(1H)-one]
< 100 | O=c1cc(-c2nnc(C(F)F)o2)ccn1CC#Cc1ccc(Cl)cc1 [Example 14, 1-(3-(4-chlorophenyl)prop-2-yn-1-yl)-4-(5-(difluoromethyl)-1,3,4-oxadiazol-2-yl)pyridin-2(1H)-one]
< 100 | COc1cccc(C#CCn2ccc(-c3nnc(C(F)F)o3)cc2=O)c1 [Example 21, 4-(5-(difluoromethyl)-1,3,4-oxadiazol-2-yl)-1-(3-(3-methoxyphenyl)prop-2-yn-1-yl)pyridin-2(1H)-one]
< 100 | O=c1cc(-c2nnc(C(F)F)o2)ccn1CC#Cc1cc(F)cc(Cl)c1 [Example 35, 1-(3-(3-chloro-5-fluorophenyl)prop-2-yn-1-yl)-4-(5-(difluoromethyl)-1,3,4-oxadiazol-2-yl)pyridin-2(1H)-one]
100 to 500 | O=c1cc(-c2noc(C(F)(F)F)n2)ccn1CC#Cc1cccnc1 [Example 4, 1-(3-(pyridin-3-yl)prop-2-yn-1-yl)-4-(5-(trifluoromethyl)-1,2,4-oxadiazol-3-yl)pyridin-2(1H)-one]
< 100 | O=c1cc(-c2nnc(C(F)F)o2)ccn1CC#Cc1ccccc1F [Example 13, 4-(5-(difluoromethyl)-1,3,4-oxadiazol-2-yl)-1-(3-(2-fluorophenyl)prop-2-yn-1-yl)pyridin-2(1H)-one]
< 100 | O=c1cc(-c2nnc(C(F)F)o2)ccn1CC#Cc1cccc(Cl)n1 [Example 22, 1-(3-(6-chloropyridin-2-yl)prop-2-yn-1-yl)-4-(5-(difluoromethyl)-1,3,4-oxadiazol-2-yl)pyridin-2(1H)-one]
< 100 | O=c1cc(-c2nnc(C(F)F)o2)ccn1CC#Cc1ccncc1 [Example 8, 4-(5-(difluoromethyl)-1,3,4-oxadiazol-2-yl)-1-(3-(pyridin-4-yl)prop-2-yn-1-yl)pyridin-2(1H)-one]
< 100 | CS(=O)(=O)c1cccc(C#CCn2ccc(-c3nnc(C(F)F)o3)cc2=O)c1 [Example 32, 4-(5-(difluoromethyl)-1,3,4-oxadiazol-2-yl)-1-(3-(3-(methylsulfonyl)phenyl)prop-2-yn-1-yl)pyridin-2(1H)-one]
< 100 | O=c1cc(-c2nnc(C(F)F)o2)ccn1CC#Cc1ccc(F)cc1 [Example 11, 4-(5-(difluoromethyl)-1,3,4-oxadiazol-2-yl)-1-(3-(4-fluorophenyl)prop-2-yn-1-yl)pyridin-2(1H)-one]
< 100 | O=c1cc(-c2nnc(C(F)F)o2)ccn1CC#Cc1ccccc1Cl [Example 16, 1-(3-(2-chlorophenyl)prop-2-yn-1-yl)-4-(5-(difluoromethyl)-1,3,4-oxadiazol-2-yl)pyridin-2(1H)-one]
< 100 | O=c1cc(-c2nnc(C(F)F)o2)ccn1CC#Cc1ccccn1 [Example 10, 4-(5-(difluoromethyl)-1,3,4-oxadiazol-2-yl)-1-(3-(pyridin-2-yl)prop-2-yn-1-yl)pyridin-2(1H)-one]
< 100 | O=c1cc(-c2nnc(C(F)F)o2)ccn1CC#Cc1cccnc1 [Example 9, 4-(5-(difluoromethyl)-1,3,4-oxadiazol-2-yl)-1-(3-(pyridin-3-yl)prop-2-yn-1-yl)pyridin-2(1H)-one]
< 100 | O=c1cc(-c2nnc(C(F)F)o2)ccn1CC#Cc1ccsc1 [Example 43, 4-(5-(difluoromethyl)-1,3,4-oxadiazol-2-yl)-1-(3-(thiophen-3-yl)prop-2-yn-1-yl)pyridin-2(1H)-one]

Compound | IC50 [nM]
Cc1nc2ccc(C#CCOc3cc(-c4nnc(C(F)F)o4)ccn3)cc2s1 [Example 41] | 500 to 1000
